These results are taken from patent US8524722B2, “Substituted tricyclic compounds and methods of use thereof” (Bayer Intellectual Property GmbH, priority 2007, dated 2013).

The assay addresses Epidermal Growth Factor Receptor (EGFR) (Homo sapiens (Human), UniProt P00533). Put plainly: EGFR HTRF kinase assay. The class given is biochemical. As for the experimental part: EGFR inhibitory activity of compounds of the present invention is quantified employing the EGFR HTRF assay as described in the following paragraphs:
Epidermal Growth Factor Receptor (EGFR), affinity-purified from human carcinoma A431 cells (Sigma-Aldrich, # E3641), is used as kinase. As substrate for the kinase reaction, the biotinylated peptide biotin-Ahx-[…] (C-terminus in amide form) is used (available from, e.g., Biosynthan GmbH, Berlin-Buch, Germany).
EGFR is incubated for 30 min at 22° C. in the presence of different concentrations of test compounds in 5 μl assay buffer [50 mM Hepes/NaOH pH 7.0, 1 mM MgCl2, 5 mM MnCl2, 1.0 mM dithiothreitol, 0.5 mM sodium orthovanadate, 10 μM adenosine triphosphate (ATP), 1 μM substrate, 0.005% (v/v) Tween-20, 1% (v/v) dimethylsulfoxide]. The concentration of EGFR is adjusted depending on the activity of the enzyme lot and is chosen appropriate to have the assay in the linear range; typical concentrations are in the range of 20 U/ml. The reaction is stopped by the addition of 5 μl of a solution of HTRF detection reagents [0.1 μM streptavidine-XLent and 1 nM PT66-Eu-Chelate, an Europium-chelate labelled anti-phosphotyrosine antibody (Perkin Elmer)] in an aqueous EDTA solution [80 mM EDTA, 0.2% (w/v) bovine serum albumin in 50 mM HEPES/NaOH pH 7.0].
The resulting mixture is incubated for 1 h at 22° C. to allow the binding of the biotinylated phosphorylated peptide to the streptavidine-XLent and the PT66-Eu-Chelate. Subsequently, the amount of phosphorylated substrate is evaluated by measurement of the resonance energy transfer from the PT66-Eu-Chelate to the streptavidine-XLent. Therefore, the fluorescence emissions at 620 nm and 665 nm after excitation at 350 nm are measured in an HTRF reader, e.g. a Rubystar (BMG Labtechnologies, Offenburg, Germany) or a Viewlux (Perkin-Elmer). The ratio of the emissions at 665 nm and at […] is taken as the measure for the amount of phosphorylated substrate.
(TR-FRET usually uses a lanthanide donor and a delayed reading to cut background.)

Setting [1] is: EGFR affinity-purified from A431 cells, 10 μM ATP, 30 min at 22° C.

Like-named read-outs stand apart in the source and are kept apart here.

Epidermal Growth Factor Receptor (EGFR), sequence (P00533 25-1210): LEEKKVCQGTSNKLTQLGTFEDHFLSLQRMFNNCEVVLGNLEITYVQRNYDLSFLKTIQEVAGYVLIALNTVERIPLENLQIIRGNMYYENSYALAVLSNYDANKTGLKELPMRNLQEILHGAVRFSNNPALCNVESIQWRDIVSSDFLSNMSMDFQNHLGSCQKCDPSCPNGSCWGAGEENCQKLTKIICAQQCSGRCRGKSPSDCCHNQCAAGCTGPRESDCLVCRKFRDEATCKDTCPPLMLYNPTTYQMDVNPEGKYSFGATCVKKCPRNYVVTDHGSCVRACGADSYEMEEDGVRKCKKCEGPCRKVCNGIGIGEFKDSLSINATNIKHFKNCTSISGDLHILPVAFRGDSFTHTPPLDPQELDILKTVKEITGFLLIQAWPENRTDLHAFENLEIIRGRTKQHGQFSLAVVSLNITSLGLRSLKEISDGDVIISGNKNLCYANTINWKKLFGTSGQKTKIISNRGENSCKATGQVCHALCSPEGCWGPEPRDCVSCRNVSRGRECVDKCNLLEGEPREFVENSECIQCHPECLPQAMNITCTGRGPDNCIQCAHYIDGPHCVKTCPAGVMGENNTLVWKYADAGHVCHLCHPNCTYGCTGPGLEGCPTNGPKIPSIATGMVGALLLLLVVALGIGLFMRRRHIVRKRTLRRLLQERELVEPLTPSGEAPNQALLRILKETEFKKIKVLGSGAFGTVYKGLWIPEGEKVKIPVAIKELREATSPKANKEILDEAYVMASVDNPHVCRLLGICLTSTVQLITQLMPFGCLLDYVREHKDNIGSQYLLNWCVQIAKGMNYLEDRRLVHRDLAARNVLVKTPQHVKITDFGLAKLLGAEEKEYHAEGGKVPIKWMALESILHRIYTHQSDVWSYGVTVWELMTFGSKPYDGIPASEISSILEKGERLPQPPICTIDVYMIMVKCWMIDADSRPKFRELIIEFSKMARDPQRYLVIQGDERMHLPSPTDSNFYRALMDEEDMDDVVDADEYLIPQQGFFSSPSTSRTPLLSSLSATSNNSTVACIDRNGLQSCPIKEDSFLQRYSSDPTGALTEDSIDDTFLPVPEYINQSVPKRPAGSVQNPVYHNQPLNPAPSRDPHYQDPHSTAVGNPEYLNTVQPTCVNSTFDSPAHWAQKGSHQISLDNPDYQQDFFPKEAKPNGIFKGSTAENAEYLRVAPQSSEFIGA

Regarding `O=C(/C=C/CN1CCCOCC1)N1CCc2c(sc3ncnc(Nc4ccc(F)c(Cl)c4)c23)C1` [Example 5, N-(3-Chloro-4-fluorophenyl)-7-[(2E)-4-(1,4-oxazepan-4-yl)but-2-enoyl]-5,6,7,8-tetrahydropyrido[4′,3′:4,5]thieno[2,3-d]pyrimidin-4-amine], the IC50 (in general, the concentration that inhibits the measured activity by half) under setting [1] was 1 nM.

Turning to `O=C(/C=C/CN1C2CCC1CC2)N1CCc2c(sc3ncnc(Nc4ccc(F)c(Cl)c4)c23)C1` [Example 10, 7-[(2E)-4-(7-Azabicyclo[2.2.1]hept-7-yl)but-2-enoyl]-N-(3-chloro-4-fluorophenyl)-5,6,7,8-tetrahydropyrido[4′,3′:4,5]thieno[2,3-d]pyrimidin-4-amine], under setting [1], the IC50 was found to be 1.1 nM. On the same count and under the same terms, the same measure for `CC(C)(CN1CCOCC1)NC/C=C/C(=O)N1CCc2c(sc3ncnc(Nc4ccc(F)c(Cl)c4)c23)C1` [Example 12, N-(3-Chloro-4-fluorophenyl)-7-{(2E)-4-[(1,1-dimethyl-2-morpholin-4-ylethyl)amino]but-2-enoyl}-5,6,7,8-tetrahydropyrido[4′,3′:4,5]thieno[2,3-d]pyrimidin-4-amine]: 1 nM. Same read-out and setting: to `O=C(/C=C/[C@@H]1CCCN1)N1CCc2c(sc3ncnc(Nc4ccc(F)c(Cl)c4)c23)C1` [Example 13, N-(3-Chloro-4-fluorophenyl)-7-{(2E)-3-[(2S)-pyrrolidin-2-yl]prop-2-enoyl}-5,6,7,8-tetrahydropyrido[4′,3′:4,5]thieno[2,3-d]pyrimidin-4-amine] belongs 2 nM; to `CN1CCC[C@H]1/C=C/C(=O)N1CCc2c(sc3ncnc(Nc4ccc(F)c(Cl)c4)c23)C1` [Example 14, N-(3-Chloro-4-fluorophenyl)-7-{(2E)-3-[(2S)-1-methylpyrrolidin-2-yl]prop-2-enoyl}-5,6,7,8-tetrahydropyrido[4′,3′:4,5]thieno[2,3-d]pyrimidin-4-amine], 1 nM; to `C[C@@H](Nc1ncnc2sc3c(c12)CCN(C(=O)/C=C/CN(C)C)C3)c1ccccc1` [Example 23, 7-[(2E)-4-(Dimethylamino)but-2-enoyl]-N-[(1R)-1-phenylethyl]-5,6,7,8-tetrahydropyrido[4′,3′:4,5]thieno[2,3-d]pyrimidin-4-amine], 4.6 nM. As to `COCCN(C/C=C/C(=O)N1CCc2c(sc3ncnc(Nc4ccc(F)c(Cl)c4)c23)C1)CCOC` [Example 31], it took 1 nM to reach half-maximal inhibition under setting [1] (IC50).

As for `CN(C)C(=O)N1CCN(C/C=C/C(=O)N2CCc3c(sc4ncnc(Nc5ccc(F)c(Cl)c5)c34)C2)CC1` [Example 70], under setting [1], the midpoint of inhibition, the IC50, lay at 1 nM.

Consider `CN(C)C/C=C/C(=O)N1Cc2sc3ncnc(Nc4ccc(F)c(Cl)c4)c3c2C1` [Example 81, N-(3-Chloro-4-fluorophenyl)-6-[(2E)-4-(dimethylamino)but-2-enoyl]-6,7-dihydro-5H-pyrrolo[3′,4′:4,5]thieno[2,3-d]pyrimidin-4-amine], for which, under setting [1], the IC50 turned out to be 12 nM. On the same count and under the same terms, to `CN(C)C/C=C/C(=O)N1Cc2sc3ncnc(Nc4ccc(OCc5cccc(F)c5)c(Cl)c4)c3c2C1` [Example 86, N-{3-Chloro-4-[(3-fluorobenzyl)oxy]phenyl}-6-[(2E)-4-(dimethylamino)but-2-enoyl]-6,7-dihydro-5H-pyrrolo[3′,4′:4,5]thieno[2,3-d]pyrimidin-4-amine] belongs 5 nM; to `CN(C)C/C=C/C(=O)N1Cc2sc3ncnc(Nc4ccc(OCc5ccccn5)c(Cl)c4)c3c2C1` [Example 87, N-[3-Chloro-4-(pyridin-2-ylmethoxy)phenyl]-6-[(2E)-4-(dimethylamino)but-2-enoyl]-6,7-dihydro-5H-pyrrolo[3′,4′:4,5]thieno[2,3-d]pyrimidin-4-amine], 19 nM; to `CC(C)N(C)C/C=C/C(=O)N1CCc2c(oc3ncnc(Nc4ccc(F)c(Cl)c4)c23)C1` [Example 90, N-(3-Chloro-4-fluorophenyl)-7-{(2E)-4-[methyl(1-methylethyl)amino]but-2-enoyl}-5,6,7,8-tetrahydropyrido[4′,3′:4,5]furo[2,3-d]pyrimidin-4-amine], 1 nM. On the same count and under the same terms, the same measure for `CN(C)C/C=C/C(=O)N1CCc2c(sc3ncc(C#N)c(Nc4ccc(F)c(Cl)c4)c23)C1` [Example 95, 4-[(3-Chloro-4-fluorophenyl)amino]-7-[(2E)-4-(dimethylamino)but-2-enoyl]-5,6,7,8-tetrahydrothieno[2,3-b:5,4-c′]dipyridine-3-carbonitrile]: 10 nM. Consider `CC(C)N(C)C/C=C/C(=O)N1CCc2c(sc3ncnc(Nc4cc(O)cc(Cl)c4)c23)C1` [Example 123, 3-Chloro-5-[(7-{(2E)-4-[methyl(1-methylethyl)amino]but-2-enoyl}-5,6,7,8-tetrahydropyrido[4′,3′:4,5]thieno[2,3-d]pyrimidin-4-yl)amino]phenol], for which the IC50 was 1 nM.

`CN(C/C=C/C(=O)N1CCc2c(sc3ncnc(Nc4cc(O)c(Cl)c(Cl)c4)c23)C1)C(C)(C)C` [Example 134, 5-[(7-{(2E)-4-[tert-Butyl(methyl)amino]but-2-enoyl}-5,6,7,8-tetrahydropyrido[4′,3′:4,5]thieno[2,3-d]pyrimidin-4-yl)amino]-2,3-dichlorophenol] returned an IC50 under setting [1] of 1 nM. Same read-out and setting: the same measure for `CC(C)N(C)C/C=C/C(=O)N1CCc2sc3ncnc(Nc4ccc(Cl)c(Cl)c4)c3c2C1` [Example 139, N-(3,4-Dichlorophenyl)-6-{(2E)-4-[methyl(1-methylethyl)amino]but-2-enoyl}-5,6,7,8-tetrahydropyrido[3′,4′:4,5]thieno[2,3-d]pyrimidin-4-amine]: 9.2 nM. Still for that read-out and setting: the same measure for `O=C(/C=C/CN1CCCOCC1)N1CCCc2c(sc3ncnc(Nc4ccc(Cl)c(Cl)c4)c23)C1` [Example 143, N-(3,4-Dichlorophenyl)-8-[(2E)-4-(1,4-oxazepan-4-yl)but-2-enoyl]-6,7,8,9-tetrahydro-5H-pyrimido[5′,4′:4,5]thieno[2,3-c]azepin-4-amine]: 1 nM; for `N#Cc1cnc2sc3c(c2c1Nc1ccc(Cl)c(Cl)c1)CCN(C(=O)/C=C/CN1CCCOCC1)C3` [Example 148, 4-[(3,4-Dichlorophenyl)amino]-7-[(2E)-4-(1,4-oxazepan-4-yl)but-2-enoyl]-5,6,7,8-tetrahydrothieno[2,3-b:5,4-c′]dipyridine-3-carbonitrile]: 4.3 nM. Same read-out and setting: to `CC(C)N(C)C/C=C/C(=O)N1CCc2c(sc3ncc(C#N)c(Nc4ccc5c(cnn5Cc5cccc(F)c5)c4)c23)C1` [Example 151, 4-{[1-(3-Fluorobenzyl)-1H-indazol-5-yl]amino}-7-{(2E)-4-[methyl(1-methylethyl)amino]but-2-enoyl}-5,6,7,8-tetrahydrothieno[2,3-b:5,4-c′]dipyridine-3-carbonitrile] belongs 6.4 nM.
